The values below come from ChEMBL document CHEMBL1124402, “Potent angiotensin II antagonists with non-beta-branched amino acids in position 5” (1989).

Square brackets hold non-standard residues; d marks the D form. Peptide text beside a SMILES is read from it. Sar = CNCC(=O)O

One assay has as its system Rattus norvegicus. Description: In vivo angiotensin II like activity expressed in rat blood pressure assay measured as increase in BP by 1 ug bolus intravenous injection of compound. Format: functional.
The species entered for another assay is Oryctolagus cuniculus. The assay is described as follows: pA2 value was evaluated in rabbit aorta assay. Format: functional.

As to `CC[C@H](C)[C@H](NC(=O)[C@@H]1CCCN1C(=O)[C@H](Cc1c[nH]cn1)NC(=O)[C@@H](NC(=O)[C@H](Cc1ccc(O)cc1)NC(=O)[C@@H](NC(=O)[C@H](CCCN=C(N)N)NC(=O)CNC)C(C)C)[C@@H](C)OC)C(=O)O` (H-[Sar]RVYT(Me)HPI-OH), the BP with Rattus norvegicus is on record as 7.5 mmHg. Moreover, the pA2 in the assay filed under Oryctolagus cuniculus worked out at 9.7.

Usually pA2 stands for a measure of antagonist potency on a negative log scale. A lower pA2 goes with a weaker antagonist.
